Laboratory results taken from ChEMBL document CHEMBL3352781, “Synthesis, antileishmanial and antitrypanosomal activities of N-substituted tetrahydro-β-carbolines” (Bioorg Med Chem Lett, 2014).
Active and inactive are the calls of the source. The rule behind the calls is not given here.

What was measured:
Leishmania donovani [1] = test: Antimicrobial activity against promastigote stage of Leishmania donovani after 72 hrs by Alamar Blue assay; type: functional, organism-based; details: Leishmania donovani, 72 h; for IC50: read-out: IC50
Leishmania donovani [2] = test: Antimicrobial activity against axenic amastigote stage of Leishmania donovani after 72 hrs by Alamar Blue assay; type: functional, organism-based; details: Leishmania donovani, 72 h; for IC50: read-out: IC50
Leishmania donovani [3] = test: Antimicrobial activity against promastigote stage of Leishmania donovani infected in human THP1 cells after 72 hrs by Alamar Blue assay; type: functional, organism-based
Trypanosoma brucei = test: Antimicrobial activity against trypamastigote stage of Trypanosoma brucei after 72 hrs by Alamar Blue assay; type: functional, organism-based
THP-1 = test: Cytotoxicity against human THP1 cells up to 10 ug/ml after 48 hrs by neutral red assay; type: cell-based; details: thp-1, 48 h
HepG2 = test: Cytotoxicity against human HepG2 cells after 48 hrs by neutral red assay; type: cell-based; details: HepG2, 48 h
LLC-PK1 = test: Cytotoxicity against pig LLC-PK1 cells after 48 hrs by neutral red assay; type: cell-based; details: Sus scrofa, LLC-PK1, 48 h
Leishmania infantum [4] = test: Antimicrobial activity against amastigote stage of Leishmania infantum; type: functional, organism-based
Leishmania infantum [5] = test: Antimicrobial activity against promastigote stage of Leishmania infantum; type: functional, organism-based
[6] = system: Trypanosoma brucei brucei; test: Antimicrobial activity against bloodstream form of Trypanosoma brucei brucei TC221; type: functional, organism-based

| IC50 (Trypanosoma brucei) | IC90 (Trypanosoma brucei) | SMILES | IC90 (Leishmania donovani [1]) [µM] | IC50 (Leishmania donovani [1]) [µM] | IC90 (Leishmania donovani [2]) [µM] | IC50 (Leishmania donovani [2]) [µM] | IC90 (Leishmania donovani [3]; THP-1) | IC50 (Leishmania donovani [3]; thp-1) | Activity (THP-1) | IC50 (HepG2) [µM] | IC50 (LLC-PK1) [µM] | IC50 (Leishmania infantum [4]) [µM] | IC50 (Leishmania infantum [5]) [µM] | IC50 [6] [µM] | IC50 (Trypanosoma brucei; Trypanosoma brucei, 72 h, read-out: IC50) [µM] |
| --- | --- | --- | --- | --- | --- | --- | --- | --- | --- | --- | --- | --- | --- | --- | --- |
| Not Active | inactive | O=C(c1ccc([N+](=O)[O-])s1)N1CCc2c([nH]c3ccccc23)C1 | 36.6 | 12.7 | 107 | 62.8 | inactive | Not Active | Non-toxic | 63.6 | 56 |  |  |  |  |
|  |  | COc1ccc2c(c1)[nH]c1c(C)nccc12 [HARMINE] |  | 3.7 |  | 0.23 |  |  |  |  |  | 0.23 | 3.7 | 74 | 74 |
